According to US20200368312A1 (priority 2017, published 2020):
≈ marks a conversion by molar mass, not a printed value. Like-named read-outs stand apart in the source and are kept apart here.

Assays:
Format in all cases: cell-based
Staphylococcus aureus = assay: microbe, parasite or virus in culture; details: for MIC: Staphylococcus aureus, read-out: MIC
Enterococci = test system: Enterococci
Streptococci = assay: Broth microdilution MIC, Streptococci (Example 11, Table 7)
S. epidermidis (CoNS) = assay: Broth microdilution MIC, S. epidermidis (CoNS) (Table 7)
S. lugdenensis (CoNS) = assay: Broth microdilution MIC, S. lugdenensis (CoNS) (Table 7); details: S. lugdenensis (CoNS) MMX 8724
S. haemolyticus (CoNS) = assay: Broth microdilution MIC, S. haemolyticus (CoNS) (Table 7); details: S. haemolyticus (CoNS) MMX 529 ATCC 29970
S. hominis (CoNS) = assay: Broth microdilution MIC, S. hominis (CoNS) (Table 7); details: S. hominis (CoNS) MMX 667 ATCC 27844
C. perfringens = test system: C. perfringens
P. micros = assay: Broth microdilution MIC, P. micros (Table 7); details: P. micros MMX 3546
P. anaerobius = assay: Broth microdilution MIC, P. anaerobius (Table 7); details: P. anaerobius MMX 1208 ATCC 27337
P. acnes = assay: Broth microdilution MIC, P. acnes (Table 7)

## CN[C@H](CC(C)C)C(=O)N[C@H]1C(=O)N[C@@H](CC(N)=O)C(=O)N[C@H]2C(=O)N[C@H]3C(=O)N[C@H](C(=O)N[C@H](C(=O)O)c4cc(O)cc(O)c4-c4cc3ccc4O)[C@H](O[C@H]3C[C@](C)(N)[C@@H](O)[C@H](C)O3)c3ccc(c(Cl)c3)Oc3cc2cc(c3O[C@@H]2O[C@H](CO)[C@@H](O)[C@H](O)[C@H]2O[C@H]2C[C@](C)(NCc3ccc(-c4ccc(Cl)cc4)cc3)[C@@H](O)[C@H](C)O2)Oc2ccc(cc2Cl)[C@H]1O [Oritavancin]
Staphylococcus aureus
  RV40 activity as compared to Comparator: 17 ×
Staphylococcus aureus; ATCC 29213 / MSSA, S. aureus MMX 100 ATCC 29213, MSSA (quality control)
  MIC: 0.03 µg/mL (≈ 0.0167 µM)
Staphylococcus aureus; ATCC 33591 / MRSA, S. aureus MMX 5717 ATCC 33591, MRSA
  MIC: 0.12 µg/mL (≈ 0.0669 µM)
Staphylococcus aureus; ATCC BAA-1556 / MRSA, S. aureus MMX 4675 ATCC BAA-1556, MRSA
  MIC: 0.06 µg/mL (≈ 0.0335 µM)
Staphylococcus aureus; ATCC BAA-1756 / MRSA, S. aureus MMX 2011 ATCC BAA-1756, MRSA
  MIC: 0.03 µg/mL (≈ 0.0167 µM)
Staphylococcus aureus; MRSA, S. aureus MMX 2010, MRSA
  MIC: 0.06 µg/mL (≈ 0.0335 µM)
Staphylococcus aureus; MRSA, S. aureus MMX 3982, MRSA
  MIC: 0.12 µg/mL (≈ 0.0669 µM)
Staphylococcus aureus; MRSA, S. aureus MMX 5985, MRSA
  MIC: 0.03 µg/mL (≈ 0.0167 µM)
Staphylococcus aureus; MRSA, S. aureus MMX 5999, MRSA
  MIC: 0.12 µg/mL (≈ 0.0669 µM)
Staphylococcus aureus; MRSA, S. aureus MMX 7899, MRSA
  MIC: 0.12 µg/mL (≈ 0.0669 µM)
Staphylococcus aureus; MRSA, S. aureus MMX 7900, MRSA
  MIC: 0.12 µg/mL (≈ 0.0669 µM)
Staphylococcus aureus; MRSA, S. aureus MMX 7901, MRSA
  MIC: 0.5 µg/mL (≈ 0.279 µM)
Staphylococcus aureus; MRSA, S. aureus MMX 7902, MRSA
  MIC: 0.5 µg/mL (≈ 0.279 µM)
Staphylococcus aureus; MRSA, S. aureus MMX 7903, MRSA
  MIC: 0.06 µg/mL (≈ 0.0335 µM)
Staphylococcus aureus; MSSA, S. aureus MMX 2490, MSSA
  MIC: 0.025 µg/mL (≈ 0.0139 µM)
Staphylococcus aureus; MSSA, S. aureus MMX 7907, MSSA
  MIC: 0.06 µg/mL (≈ 0.0335 µM)
Staphylococcus aureus; MSSA, S. aureus MMX 7908, MSSA
  MIC: 0.06 µg/mL (≈ 0.0335 µM)
Staphylococcus aureus; S. aureus MMX 4665, hVISA
  MIC: 0.5 µg/mL (≈ 0.279 µM)
Staphylococcus aureus; S. aureus MMX 5989, Mu3, hVISA
  MIC: 0.12 µg/mL (≈ 0.0669 µM)
Staphylococcus aureus; VISA, S. aureus MMX 1723, Mu50, VISA
  MIC: 1 µg/mL (≈ 0.558 µM)
Staphylococcus aureus; VISA, S. aureus MMX 2124, VISA, DaptoNS
  MIC: 1 µg/mL (≈ 0.558 µM)
Staphylococcus aureus; VISA, S. aureus MMX 4658, VISA
  MIC: 0.25 µg/mL (≈ 0.139 µM)
Staphylococcus aureus; VISA, S. aureus MMX 4660, VISA
  MIC: 1 µg/mL (≈ 0.558 µM)
Enterococci; E. faecalis MMX 101 ATCC 29212, VSE
  MIC: ≤ 0.008 µg/mL
Enterococci; E. faecalis MMX 1086, VanA VRE
  MIC: 1 µg/mL (≈ 0.558 µM)
Enterococci; E. faecalis MMX 4176
  MIC: 0.03 µg/mL (≈ 0.0167 µM)
Enterococci; E. faecium MMX 173, VanB VRE
  MIC: ≤ 0.008 µg/mL
Enterococci; E. faecium MMX 851, VanA VRE
  MIC: 0.12 µg/mL (≈ 0.0669 µM)
Enterococci; E. faecium MMX 4204
  MIC: 0.015 µg/mL (≈ 0.00837 µM)
Streptococci; S. agalactiae MMX 427 ATCC 13813
  MIC: 1 µg/mL (≈ 0.558 µM)
Streptococci; S. agalactiae MMX 4088
  MIC: 0.12 µg/mL (≈ 0.0669 µM)
Streptococci; S. agalactiae MMX 4115, erm^R
  MIC: 0.25 µg/mL (≈ 0.139 µM)
Streptococci; S. anginosus (AGS) MMX 1201 ATCC 33397
  MIC: 0.5 µg/mL (≈ 0.279 µM)
Streptococci; S. constellatus (AGS) MMX 5677
  MIC: ≤ 0.008 µg/mL
Streptococci; S. dysgalactiae MMX 5121
  MIC: 0.05 µg/mL (≈ 0.0279 µM)
Streptococci; S. dysgalactiae MMX 5123
  MIC: 2 µg/mL (≈ 1.12 µM)
Streptococci; S. dysgalactiae MMX 5124
  MIC: 1 µg/mL (≈ 0.558 µM)
Streptococci; S. mitis (MGS) MMX 1205 ATCC 49456
  MIC: 0.03 µg/mL (≈ 0.0167 µM)
Streptococci; S. mitis (MGS) MMX 5798
  MIC: 0.25 µg/mL (≈ 0.139 µM)
Streptococci; S. oralis (MGS) MMX 5821
  MIC: ≤ 0.008 µg/mL
Streptococci; S. pneumoniae MMX 432, PRSP
  MIC: ≤ 0.008 µg/mL
Streptococci; S. pneumoniae MMX 747
  MIC: ≤ 0.008 µg/mL
Streptococci; S. pneumoniae MMX 1195 ATCC 49619, PISP
  MIC: ≤ 0.008 µg/mL
Streptococci; S. pyogenes MMX 404 ATCC 19615
  MIC: 2 µg/mL (≈ 1.12 µM)
Streptococci; S. pyogenes MMX 946, ermR
  MIC: 0.25 µg/mL (≈ 0.139 µM)
Streptococci; S. pyogenes MMX 8778
  MIC: 1 µg/mL (≈ 0.558 µM)
S. epidermidis (CoNS); S. epidermidis (CoNS) MMX 762, MRSE
  MIC: 0.25 µg/mL (≈ 0.139 µM)
S. epidermidis (CoNS); S. epidermidis (CoNS) MMX 5145, MRSE
  MIC: 0.12 µg/mL (≈ 0.0669 µM)
S. lugdenensis (CoNS)
  MIC: ≤ 8 ng/mL
S. haemolyticus (CoNS)
  MIC: 0.12 µg/mL (≈ 0.0669 µM)
S. hominis (CoNS)
  MIC: 0.06 µg/mL (≈ 0.0335 µM)
C. perfringens
  MIC: 0.015 µg/mL (≈ 0.00837 µM)
P. micros
  MIC: 0.03 µg/mL (≈ 0.0167 µM)
P. anaerobius
  MIC: 0.03 µg/mL (≈ 0.0167 µM)
P. acnes; P. acnes MMX 7942 ATCC 6919
  MIC: ≤ 8 ng/mL
P. acnes; P. acnes MMX 7946 ATCC 11827
  MIC: ≤ 8 ng/mL
